What all share (assay): NCI tumour cell line growth inhibition, 48 h
The subject of experiment [1] is RPMI-8226 leukemia.
Experiment [2] has as its system LOX IMVI melanoma.
Experiment [3] concerns OVCAR-3 ovarian.
The test system of experiment [4] is SF-539 CNS.
In experiment [5] the test system is ACHN renal.
For experiment [6], the system named is HCT-116 colon.
In experiment [7] the test system is NCI-H460 lung.
For experiment [8], the system named is NCI-H522 lung.
For experiment [9], the system named is EKVX NSCLC.
Experiment [10] concerns NCI-H23 lung.

Our source for the TGI and GI50 values is PubChem BioAssay (NCI).

The structures appear in SMILES notation.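 Exposure lasted 48 hours, with cells grown in 96-well plates and compounds tested at five concentrations. The concentration for 50% growth inhibition is given as GI50. TGI marks complete inhibition of growth.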 *1 amine or outer side, *2 acyl side, *3 side chain or, on linkers, in order; H or OH if unused. Where a SMILES comes first, the peptide text is derived from it. Bridges are numbered along the chain shown (N, C = ends). [ ]: non-standard residue; d: D form. The star is where a group is joined. Phe(3-Me) = Cc1cccc(C[C@H](N)C(=O)O)c1; NH(4-Cl-2-F-phenyl) = Fc1cc(Cl)ccc1N*; Pro(4R-Me) = C[C@H]1CN[C@H](C(=O)O)C1; Propanoyl(3-NMe2) = CN(C)CCC(=O)*; Hyp = O=C(O)[C@@H]1C[C@@H](O)CN1; aThr = C[C@H](O)[C@H](N)C(=O)O; Pip = O=C(O)[C@@H]1CCCCN1; CO = O=C([*:1])[*:2]

As for `CN(C)/C(N)=N/C(N)=S`, the TGI in experiment [1], in [2], in experiment [3], in experiment [4], in [5] and in [6] was greater than 100 µM in each case. For the same molecule, the TGI in experiment [7], in experiment [8], in experiment [9] and in [10] was greater than 100 µM each time.

As to `CNC1C(OC2C(OC3C(O)C(O)C(O)C(O)C3O)OC(C)C2(O)CO)OC(CO)C(O)C1O` (stereo not given) (tested in a mixture with another compound), the TGI in experiment [1], in experiment [2], in [3], in experiment [4], in experiment [5] and in [6] was greater than 100 µM throughout. Also, the TGI in experiment [7], in [8], in experiment [9] and in experiment [10] was greater than 100 µM in each case.

On to `COc1ccc(/C(C)=N/NC(N)=S)c(OC)c1`, for which the TGI in experiment [1], in experiment [2], in experiment [3], in experiment [4], in experiment [5] and in [6] was greater than 100 µM each time. Moreover, the TGI in [7] was greater than 100 µM; in [8] it was 62.3 µM; in [9] it was greater than 100 µM; in experiment [10], greater than 100 µM.

`CCC/C(=N\NC(=O)c1cc2ccccc2cc1O)C(CC)C(=O)CCC(=O)N(Cc1ccccc1)Cc1ccccc1` (stereo not given): the TGI in experiment [1], in experiment [2], in experiment [3], in experiment [4], in [5] and in experiment [6] was greater than 100 µM each time. For the same molecule, the TGI in [7], in [8], in experiment [9] and in [10] was greater than 100 µM each time.

For the molecule `Cc1cccc(C[C@H](NC(=O)Nc2ccc(Cl)cc2F)C(=O)N[C@@H]2C(=O)N3C[C@H](OC(=O)CCN(C)C)C[C@H]3C(=O)N3CCCC[C@H]3C(=O)N[C@@H](C)C(=O)N3C[C@H](C)C[C@H]3C(=O)O[C@H]2C)c1` ({NH(4-Cl-2-F-phenyl)-CO}-[Phe(3-Me)][aThr][Hyp](Propanoyl(3-NMe2))[Pip]A[Pro(4R-Me)]; ester 2-C), the GI50 in [1] was 0.181 µM; in experiment [2], 0.683 µM; in [3] it was 0.362 µM; in [4] it was 0.704 µM; in [5], 1.75 µM; in experiment [6], 0.408 µM. The GI50 in [7] was 0.386 µM; in experiment [8] it was 0.495 µM; in [9], 0.976 µM; in experiment [10], 0.519 µM. In addition, the TGI in experiment [1] worked out at 1.88 µM; in experiment [2], 2.2 µM; in [3] it was 1.47 µM; in [4] it was 2.17 µM; in experiment [5], 3.49 µM; in [6], 1.62 µM. Moreover, the TGI in experiment [7] came out at 1.82 µM; in experiment [8], 2.47 µM; in experiment [9], 6.25 µM; in experiment [10], 3.17 µM.

Consider `COc1ccc(-c2coc3cc(OC)cc(O)c3c2=O)cc1`, for which the TGI in [1], in experiment [2], in experiment [3], in experiment [4], in experiment [5] and in experiment [6] was greater than 100 µM throughout. In addition, the TGI in [7], in [8], in [9] and in experiment [10] was greater than 100 µM in each case.

Take `COc1ccc(/C=C/C(=O)c2ccc(Nc3ccnc4cc(Cl)ccc34)cc2)cc1`: the GI50 is 4.94 µM in [1]; greater than 100 µM in [2]; greater than 100 µM in experiment [3]; greater than 100 µM in [4]; greater than 100 µM in [5]; 0.412 µM in [6]. The GI50 in [7], in experiment [8], in [9] and in [10] was greater than 100 µM in each case. For the same molecule, the TGI in [1] is greater than 55.6 µM; in experiment [2], greater than 100 µM; in [3] it was greater than 100 µM; in [4] it was greater than 100 µM; in experiment [5], greater than 100 µM; in experiment [6], greater than 100 µM. In addition, the TGI in experiment [7], in [8], in experiment [9] and in experiment [10] was greater than 100 µM each time.

As for `C=C1N(C)c2ccc(Cl)cc2C1(C)C`, the GI50 in experiment [1] was 2.56 µM; in experiment [2], 6.98 µM; in [3], 4.95 µM; in experiment [4], 19.6 µM; in experiment [5] it was 24.6 µM; in experiment [6], 3.52 µM. Also, the GI50 in [7] was 4.94 µM; in experiment [8], 5.91 µM; in [9], 4.59 µM; in experiment [10] it was 5.47 µM. The TGI in experiment [1] was 10.4 µM; in [2], 55.5 µM; in [3] it was 38.2 µM; in [4], 62.5 µM; in [5], greater than 100 µM; in experiment [6], 17.5 µM. Also, the TGI in [7] is 36.1 µM; in experiment [8] it was 74.8 µM; in experiment [9], greater than 100 µM; in [10], greater than 100 µM.

Take `Nc1nc2c(c3cnccc13)C(c1cccc(Cl)c1)Cc1cnccc1-2` (stereo not given): the GI50 was 0.48 µM in experiment [1]; 0.373 µM in experiment [2]; 0.293 µM in experiment [3]; 0.255 µM in experiment [4]; 0.761 µM in experiment [5]; 0.448 µM in experiment [6]. In addition, the GI50 is 0.385 µM in experiment [7], 0.247 µM in [8], 0.441 µM in experiment [9] and 0.382 µM in [10]. Further, the TGI in experiment [1] was 20.2 µM; in [2], 11.2 µM; in experiment [3] it was 13.1 µM; in experiment [4], 0.752 µM; in experiment [5], 11.9 µM; in experiment [6], 11.3 µM. Moreover, the TGI in experiment [7] turned out to be 11.6 µM; in experiment [8], 0.718 µM; in experiment [9], 15.1 µM; in experiment [10] it was 3.51 µM.

Consider `CC(=O)c1ccc(NCN2C(=O)c3ccccc3C2=O)cc1`, for which the TGI in experiment [1], in experiment [2], in experiment [3], in [4], in experiment [5] and in experiment [6] was greater than 100 µM throughout. Moreover, the TGI in [7], in experiment [8], in experiment [9] and in experiment [10] was greater than 100 µM in each case.
